Measured values as given in patent US10004701B2, “Methods and compositions for treating infection” (UNIVERSITY OF ROCHESTER, priority 2012, dated 2018).
Structures can show the parent of a compound that is named as a salt. Where two headings read alike, the source gives them in different places.

Legend:
Experiment in all cases: AK assay 384-well format, Prestwick library screening
E. faecium = format: cell-based, Enterococcus faecium; settings: 50 μM final drug concentration; for fold induction at 50 µM: Enterococcus faecium, 3 h
[1] = test system: S. aureus strain USA300-0114; format: cell-based, Staphylococcus aureus; settings: 50 μM final drug concentration; for fold induction at 50 µM: Staphylococcus aureus, USA300, 3 h
K. pneumoniae = format: cell-based, Klebsiella pneumoniae; settings: 50 μM final drug concentration; for fold induction at 50 µM: Klebsiella pneumoniae, 3 h
[2] = test system: A. baumannii strain 98-37-09; format: cell-based, Acinetobacter baumannii; settings: 50 μM final drug concentration; for fold induction at 50 µM: Acinetobacter baumannii, 983709, 3 h
P. aeruginosa = format: cell-based, Pseudomonas aeruginosa; settings: 50 μM final drug concentration; for fold induction at 50 µM: Pseudomonas aeruginosa, 3 h
E. cloacae = format: cell-based, Enterobacter cloacae; settings: 50 μM final drug concentration; for fold induction at 50 µM: Enterobacter cloacae, 3 h
E. coli = format: cell-based, Escherichia coli; settings: 50 μM final drug concentration; for fold induction at 50 µM: Escherichia coli, 3 h
[3] = 384-well format, cutoff for positive-scoring molecules 3-fold increase, read-out: AK-based Prestwick Library Screening Results, E. faecium (increase in extracellular AK activity)
[4] = 384-well format, cutoff for positive-scoring molecules 3-fold increase, read-out: AK-based Prestwick Library Screening Results, S. aureus (increase in extracellular AK activity)
[5] = 384-well format, cutoff for positive-scoring molecules 3-fold increase, read-out: AK-based Prestwick Library Screening Results, K. pneumoniae (increase in extracellular AK activity)
[6] = 384-well format, cutoff for positive-scoring molecules 3-fold increase, read-out: AK-based Prestwick Library Screening Results, A. baumannii (increase in extracellular AK activity)
[7] = 384-well format, cutoff for positive-scoring molecules 3-fold increase, read-out: AK-based Prestwick Library Screening Results, P. aeruginosa (increase in extracellular AK activity)
[8] = 384-well format, cutoff for positive-scoring molecules 3-fold increase, read-out: AK-based Prestwick Library Screening Results, E. cloacae (increase in extracellular AK activity)
[9] = 384-well format, cutoff for positive-scoring molecules 3-fold increase, read-out: AK-based Prestwick Library Screening Results, E. coli (increase in extracellular AK activity)
[10] = planktonic, cutoff for positive-scoring molecules 3-fold increase
[11] = cutoff for positive-scoring molecules 3-fold increase
[12] = planktonic, cutoff for positive 3-fold increase

O=C(O)COCCN1CCN(C(c2ccccc2)c2ccc(Cl)cc2)CC1 (centres unmarked) [Cetirizine dihydrochloride]
fold induction at 50 µM (E. faecium; planktonic E. faecium, cutoff for positive-scoring molecules 3-fold increase, read-out: AK-based Prestwick Library Screening Results, E. faecium (increase in extracellular AK activity)): 0.9
fold induction at 50 µM ([1]; planktonic S. aureus, cutoff for positive-scoring molecules 3-fold increase, read-out: AK-based Prestwick Library Screening Results, S. aureus (increase in extracellular AK activity)): 0.7
fold induction at 50 µM (K. pneumoniae; planktonic K. pneumoniae, cutoff for positive-scoring molecules 3-fold increase, read-out: AK-based Prestwick Library Screening Results, K. pneumoniae (increase in extracellular AK activity)): 0.7
fold induction at 50 µM ([2]; planktonic A. baumannii, cutoff for positive-scoring molecules 3-fold increase, read-out: AK-based Prestwick Library Screening Results, A. baumannii (increase in extracellular AK activity)): 1.1
fold induction at 50 µM (P. aeruginosa; planktonic P. aeruginosa, cutoff for positive-scoring molecules 3-fold increase, read-out: AK-based Prestwick Library Screening Results, P. aeruginosa (increase in extracellular AK activity)): 0.9
fold induction at 50 µM (E. cloacae; planktonic E. cloacae, cutoff for positive-scoring molecules 3-fold increase, read-out: AK-based Prestwick Library Screening Results, E. cloacae (increase in extracellular AK activity)): 0.9
fold induction at 50 µM (E. coli; planktonic E. coli, cutoff for positive-scoring molecules 3-fold increase, read-out: AK-based Prestwick Library Screening Results, E. coli (increase in extracellular AK activity)): 0.9

COc1ccc(C(=O)OC2C[C@H]3CC[C@@H](C2)N3C)cc1OC.Cl (some centres unmarked) [Convolamine hydrochloride]
AK-based Prestwick Library Screening Results, E. faecium (increase in extracellular AK activity) (E. faecium; planktonic E. faecium, cutoff for positive-scoring molecules 3-fold increase): 0.9
AK-based Prestwick Library Screening Results, S. aureus (increase in extracellular AK activity) ([1]; planktonic S. aureus, cutoff for positive-scoring molecules 3-fold increase): 0.6
AK-based Prestwick Library Screening Results, K. pneumoniae (increase in extracellular AK activity) (K. pneumoniae; planktonic K. pneumoniae, cutoff for positive-scoring molecules 3-fold increase): 0.7
AK-based Prestwick Library Screening Results, A. baumannii (increase in extracellular AK activity) ([2]; planktonic A. baumannii, cutoff for positive-scoring molecules 3-fold increase): 1.0
AK-based Prestwick Library Screening Results, P. aeruginosa (increase in extracellular AK activity) (P. aeruginosa; planktonic P. aeruginosa, cutoff for positive-scoring molecules 3-fold increase): 0.8
AK-based Prestwick Library Screening Results, E. cloacae (increase in extracellular AK activity) (E. cloacae; planktonic E. cloacae, cutoff for positive-scoring molecules 3-fold increase): 1.3
AK-based Prestwick Library Screening Results, E. coli (increase in extracellular AK activity) (E. coli; planktonic E. coli, cutoff for positive-scoring molecules 3-fold increase): 1.1

CC(NC(C)(C)C)C(=O)c1cccc(Cl)c1 (centres unmarked) [Bupropion hydrochloride]
fold induction at 50 µM (E. faecium; [3]): 1
fold induction at 50 µM [1, 4]: 0.5
fold induction at 50 µM (K. pneumoniae; [5]): 0.5
fold induction at 50 µM [2, 6]: 0.5
fold induction at 50 µM (P. aeruginosa; [7]): 0.5
fold induction at 50 µM (E. cloacae; [8]): 0.5
fold induction at 50 µM (E. coli; [9]): 0.5

CCN1C[C@]2(COC)[C@H](O)C[C@H](OC)[C@@]34[C@@H]5C[C@@]6(O)[C@H](OC(=O)c7ccccc7)[C@@H]5[C@@](OC(C)=O)([C@@H]([C@H](OC)[C@H]23)[C@@H]14)[C@@H](O)[C@@H]6OC [Aconitine]
fold induction at 50 µM (E. faecium; planktonic E. faecium, […], read-out: AK-based Prestwick Library Screening Results, E. faecium (increase in extracellular AK activity)): 0.9
fold induction at 50 µM ([1]; planktonic S. aureus, […], read-out: AK-based Prestwick Library Screening Results, S. aureus (increase in extracellular AK activity)): 0.5
fold induction at 50 µM (K. pneumoniae; planktonic K. pneumoniae, […], read-out: AK-based Prestwick Library Screening Results, K. pneumoniae (increase in extracellular AK activity)): 0.5
fold induction at 50 µM ([2]; planktonic A. baumannii, […], read-out: AK-based Prestwick Library Screening Results, A. baumannii (increase in extracellular AK activity)): 0.6
fold induction at 50 µM (P. aeruginosa; planktonic P. aeruginosa, […], read-out: AK-based Prestwick Library Screening Results, P. aeruginosa (increase in extracellular AK activity)): 0.5
fold induction at 50 µM (E. cloacae; planktonic E. cloacae, […], read-out: AK-based Prestwick Library Screening Results, E. cloacae (increase in extracellular AK activity)): 0.6
fold induction at 50 µM (E. coli; planktonic E. coli, […], read-out: AK-based Prestwick Library Screening Results, E. coli (increase in extracellular AK activity)): 0.6

CO[C@@H]1C=C2CCN(C)[C@@H]2C2c3cc4c(cc3C(=O)OC21)OCO4.O=[N+]([O-])O (some centres unmarked) [Ungerine nitrate]
AK-based Prestwick Library Screening Results, E. faecium (fold increase in extracellular AK activity) (E. faecium; [10]): 1.0
AK-based Prestwick Library Screening Results, S. aureus (fold increase in extracellular AK activity) [1, 10]: 1.2
AK-based Prestwick Library Screening Results, K. pneumoniae (fold increase in extracellular AK activity) (K. pneumoniae; [10]): 1.0
AK-based Prestwick Library Screening Results, A. baumannii (fold increase in extracellular AK activity) [2, 10]: 1.1
AK-based Prestwick Library Screening Results, P. aeruginosa (fold increase in extracellular AK activity) (P. aeruginosa; [10]): 1.1
AK-based Prestwick Library Screening Results, E. cloacae (fold increase in extracellular AK activity) (E. cloacae; [10]): 1.4
AK-based Prestwick Library Screening Results, E. coli (fold increase in extracellular AK activity) (E. coli; [10]): 1.3

c1ccc([C@H]2CN3CCSC3=N2)cc1 [Levamisole hydrochloride]
fold induction at 50 µM (E. faecium; [3]): 1
fold induction at 50 µM [1, 4]: 0.9
fold induction at 50 µM (K. pneumoniae; [5]): 0.7
fold induction at 50 µM [2, 6]: 1.1
fold induction at 50 µM (P. aeruginosa; [7]): 1
fold induction at 50 µM (E. cloacae; [8]): 1
fold induction at 50 µM (E. coli; [9]): 1

CC(CCc1ccccc1)NCC(O)c1ccc(O)c(C(N)=O)c1 (centres unmarked) [Labetalol hydrochloride]
fold induction at 50 µM (E. faecium; [3]): 0.9
fold induction at 50 µM [1, 4]: 0.8
fold induction at 50 µM (K. pneumoniae; [5]): 0.7
fold induction at 50 µM [2, 6]: 0.9
fold induction at 50 µM (P. aeruginosa; [7]): 0.9
fold induction at 50 µM (E. cloacae; [8]): 1.3
fold induction at 50 µM (E. coli; [9]): 0.9

CC[N+](CC)(CC)CCC(O)(c1ccccc1)C1CCCCC1.[Cl-] (centres unmarked) [Tridihexethyl chloride]
AK-based Prestwick Library Screening Results, E. faecium (fold increase in extracellular AK activity) (E. faecium; [11]): 0.8
AK-based Prestwick Library Screening Results, S. aureus (fold increase in extracellular AK activity) [1, 11]: 0.4
AK-based Prestwick Library Screening Results, K. pneumoniae (fold increase in extracellular AK activity) (K. pneumoniae; [11]): 0.4
AK-based Prestwick Library Screening Results, A. baumannii (fold increase in extracellular AK activity) [2, 11]: 0.4
AK-based Prestwick Library Screening Results, P. aeruginosa (fold increase in extracellular AK activity) (P. aeruginosa; [11]): 0.4
AK-based Prestwick Library Screening Results, E. cloacae (fold increase in extracellular AK activity) (E. cloacae; [11]): 0.3
AK-based Prestwick Library Screening Results, E. coli (fold increase in extracellular AK activity) (E. coli; [11]): 0.4

COc1ccc(Cl)cc1C(=O)NCCc1ccc(S(=O)(=O)NC(=O)NC2CCCCC2)cc1 [Glibenclamide]
fold induction at 50 µM (E. faecium; planktonic E. faecium, 384-well, cutoff for positive-scoring molecules 3-fold increase, read-out: AK-based Prestwick Library Screening Results: E. faecium (increase in extracellular AK activity)): 1
fold induction at 50 µM ([1]; planktonic S. aureus, 384-well, cutoff for positive-scoring molecules 3-fold increase, read-out: AK-based Prestwick Library Screening Results: S. aureus (increase in extracellular AK activity)): 0.9
fold induction at 50 µM (K. pneumoniae; planktonic K. pneumoniae, 384-well, cutoff for positive-scoring molecules 3-fold increase, read-out: AK-based Prestwick Library Screening Results: K. pneumoniae (increase in extracellular AK activity)): 1.1
fold induction at 50 µM ([2]; planktonic A. baumannii, 384-well, cutoff for positive-scoring molecules 3-fold increase, read-out: AK-based Prestwick Library Screening Results: A. baumannii (increase in extracellular AK activity)): 1.3
fold induction at 50 µM (P. aeruginosa; planktonic P. aeruginosa, 384-well, cutoff for positive-scoring molecules 3-fold increase, read-out: AK-based Prestwick Library Screening Results: P. aeruginosa (increase in extracellular AK activity)): 1.2
fold induction at 50 µM (E. cloacae; planktonic E. cloacae, 384-well, cutoff for positive-scoring molecules 3-fold increase, read-out: AK-based Prestwick Library Screening Results: E. cloacae (increase in extracellular AK activity)): 1.4
fold induction at 50 µM (E. coli; planktonic E. coli, 384-well, cutoff for positive-scoring molecules 3-fold increase, read-out: AK-based Prestwick Library Screening Results: E. coli (increase in extracellular AK activity)): 1.2

CC(=O)NC1CCSC1=O (racemic) [N-Acetyl-DL-homocysteine Thiolactone]
AK-based Prestwick Library Screening Results, E. faecium (fold increase in extracellular AK activity) (E. faecium; [12]): 0.8
AK-based Prestwick Library Screening Results, S. aureus (fold increase in extracellular AK activity) [1, 12]: 0.4
AK-based Prestwick Library Screening Results, K. pneumoniae (fold increase in extracellular AK activity) (K. pneumoniae; [12]): 0.4
AK-based Prestwick Library Screening Results, A. baumannii (fold increase in extracellular AK activity) [2, 12]: 0.4
AK-based Prestwick Library Screening Results, P. aeruginosa (fold increase in extracellular AK activity) (P. aeruginosa; [12]): 0.3
AK-based Prestwick Library Screening Results, E. cloacae (fold increase in extracellular AK activity) (E. cloacae; [12]): 0.7
AK-based Prestwick Library Screening Results, E. coli (fold increase in extracellular AK activity) (E. coli; [12]): 0.5

O=C([O-])c1ccccc1-c1c2cc(Br)c(=O)cc-2oc2[c]([Hg+])c([O-])c(Br)cc12.[Na+].[Na+].[OH-] [Merbromin]
AK-based Prestwick Library Screening Results, E. faecium (fold increase in extracellular AK activity) (E. faecium; […]): 0.6
AK-based Prestwick Library Screening Results, S. aureus (fold increase in extracellular AK activity) ([1]; […]): 0.2
AK-based Prestwick Library Screening Results, K. pneumoniae (fold increase in extracellular AK activity) (K. pneumoniae; […]): 0.4
AK-based Prestwick Library Screening Results, A. baumannii (fold increase in extracellular AK activity) ([2]; […]): 0.7
AK-based Prestwick Library Screening Results, P. aeruginosa (fold increase in extracellular AK activity) (P. aeruginosa; […]): 0.4
AK-based Prestwick Library Screening Results, E. cloacae (fold increase in extracellular AK activity) (E. cloacae; […]): 1.4
AK-based Prestwick Library Screening Results, E. coli (fold increase in extracellular AK activity) (E. coli; […]): 0.5
